Experimental data taken from the supplement of paper PMC10307832.

What was measured:
Assay in all cases: relative viability (nuclei count vs DMSO), 5 days (fraction); higher = more cells survive
A-427 = system: A-427
In short: (§1)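 Relative viability is defined as nuclei in treated wells over nuclei in vehicle wells. Duplicate plates were run and medians reported. Lung cancer cell lines in 1536-well plates were dosed by pin tool one day after seeding, with one drug or with a fixed anchor-drug dose plus five library-drug doses (not always all listed) in √10 steps, and nuclei were counted after 5 days.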

CAL-12T = system: CAL-12T
In short: as §1

COR-L 105 = system: COR-L 105
In short: as §1

COR-L23 = system: COR-L23
In short: as §1

EPLC-272H = system: EPLC-272H
In short: as §1

HOP-62 = system: HOP-62
In short: as §1

LCLC-103H = system: LCLC-103H
In short: as §1

LXF-289 = system: LXF-289
In short: as §1

NCI-H1651 = system: NCI-H1651
In short: as §1

NCI-H1975 = system: NCI-H1975
In short: as §1

NCI-H1993 = system: NCI-H1993
In short: as §1

NCI-H2023 = system: NCI-H2023
In short: as §1

NCI-H2085 = system: NCI-H2085
In short: as §1

NCI-H2087 = system: NCI-H2087
In short: as §1

NCI-H2170 = system: NCI-H2170
In short: as §1

NCI-H3122 = system: NCI-H3122
In short: as §1

NCI-H596 = system: NCI-H596
In short: as §1

NCI-H647 = system: NCI-H647
In short: as §1

NCI-H650 = system: NCI-H650
In short: as §1

PC-14 = system: PC-14
In short: as §1

RERF-LC-KJ = system: RERF-LC-KJ
In short: as §1

SK-MES-1 = system: SK-MES-1
In short: as §1

## Cc1cnc(-c2cnc(NCCNc3ccc(C#N)cn3)nc2-c2ccc(Cl)cc2Cl)[nH]1 + C[C@@H](Oc1cc(-c2cnn(C3CCNCC3)c2)cnc1N)c1c(Cl)ccc(F)c1Cl [Crizotinib] (partner 1 µM)
A-427; first compound 0.08 µM
  relative viability: 0.911
A-427; first compound 0.253 µM
  relative viability: 0.972
A-427; first compound 0.8 µM
  relative viability: 0.882
A-427; first compound 2.53 µM
  relative viability: 0.826
CAL-12T; first compound 0.08 µM
  relative viability: 0.722
CAL-12T; first compound 0.253 µM
  relative viability: 0.507
CAL-12T; first compound 0.8 µM
  relative viability: 0.529
CAL-12T; first compound 2.53 µM
  relative viability: 0.376
COR-L 105; first compound 0.08 µM
  relative viability: 0.869
COR-L 105; first compound 0.253 µM
  relative viability: 0.716
COR-L 105; first compound 0.8 µM
  relative viability: 0.706
COR-L 105; first compound 2.53 µM
  relative viability: 0.529
COR-L23; first compound 0.08 µM
  relative viability: 0.619
COR-L23; first compound 0.253 µM
  relative viability: 0.605
COR-L23; first compound 0.8 µM
  relative viability: 0.833
COR-L23; first compound 2.53 µM
  relative viability: 0.722
EPLC-272H; first compound 0.08 µM
  relative viability: 0.928
EPLC-272H; first compound 0.253 µM
  relative viability: 0.872
EPLC-272H; first compound 0.8 µM
  relative viability: 0.832
EPLC-272H; first compound 2.53 µM
  relative viability: 0.883
HOP-62; first compound 0.08 µM
  relative viability: 0.892
HOP-62; first compound 0.253 µM
  relative viability: 0.816
HOP-62; first compound 0.8 µM
  relative viability: 0.997
HOP-62; first compound 2.53 µM
  relative viability: 0.853
LCLC-103H; first compound 0.08 µM
  relative viability: 1.04
LCLC-103H; first compound 0.253 µM
  relative viability: 1.12
LCLC-103H; first compound 0.8 µM
  relative viability: 0.984
LCLC-103H; first compound 2.53 µM
  relative viability: 0.954
LXF-289; first compound 0.08 µM
  relative viability: 0.852
LXF-289; first compound 0.253 µM
  relative viability: 0.796
LXF-289; first compound 0.8 µM
  relative viability: 0.839
LXF-289; first compound 2.53 µM
  relative viability: 0.87
NCI-H1651; first compound 0.08 µM
  relative viability: 0.915
NCI-H1651; first compound 0.253 µM
  relative viability: 0.797
NCI-H1651; first compound 0.8 µM
  relative viability: 0.852
NCI-H1651; first compound 2.53 µM
  relative viability: 0.825
NCI-H1975; first compound 0.08 µM
  relative viability: 0.968
NCI-H1975; first compound 0.253 µM
  relative viability: 0.907
NCI-H1975; first compound 0.8 µM
  relative viability: 0.906
NCI-H1975; first compound 2.53 µM
  relative viability: 0.569
NCI-H1993; first compound 0.08 µM
  relative viability: 0.804
NCI-H1993; first compound 0.253 µM
  relative viability: 0.861
NCI-H1993; first compound 0.8 µM
  relative viability: 0.884
NCI-H1993; first compound 2.53 µM
  relative viability: 0.954
NCI-H2023; first compound 0.08 µM
  relative viability: 0.775
NCI-H2023; first compound 0.253 µM
  relative viability: 0.696
NCI-H2023; first compound 0.8 µM
  relative viability: 0.664
NCI-H2023; first compound 2.53 µM
  relative viability: 0.688
NCI-H2085; first compound 0.08 µM
  relative viability: 0.719
NCI-H2085; first compound 0.253 µM
  relative viability: 0.888
NCI-H2085; first compound 0.8 µM
  relative viability: 1.06
NCI-H2085; first compound 2.53 µM
  relative viability: 0.974
NCI-H2087; first compound 0.08 µM
  relative viability: 0.744
NCI-H2087; first compound 0.253 µM
  relative viability: 0.823
NCI-H2087; first compound 0.8 µM
  relative viability: 0.862
NCI-H2087; first compound 2.53 µM
  relative viability: 0.693
NCI-H2170; first compound 0.08 µM
  relative viability: 1.25
NCI-H2170; first compound 0.253 µM
  relative viability: 1.07
NCI-H2170; first compound 0.8 µM
  relative viability: 1.26
NCI-H2170; first compound 2.53 µM
  relative viability: 1.06
NCI-H3122; first compound 0.08 µM
  relative viability: 0.285
NCI-H3122; first compound 0.253 µM
  relative viability: 0.319
NCI-H3122; first compound 0.8 µM
  relative viability: 0.253
NCI-H3122; first compound 2.53 µM
  relative viability: 0.304
NCI-H596; first compound 0.08 µM
  relative viability: 0.921
NCI-H596; first compound 0.253 µM
  relative viability: 0.906
NCI-H596; first compound 0.8 µM
  relative viability: 0.968
NCI-H596; first compound 2.53 µM
  relative viability: 0.927
NCI-H647; first compound 0.08 µM
  relative viability: 1.06
NCI-H647; first compound 0.253 µM
  relative viability: 0.783
NCI-H647; first compound 0.8 µM
  relative viability: 1.07
NCI-H647; first compound 2.53 µM
  relative viability: 0.927
NCI-H650; first compound 0.08 µM
  relative viability: 0.786
NCI-H650; first compound 0.253 µM
  relative viability: 0.676
NCI-H650; first compound 0.8 µM
  relative viability: 0.673
NCI-H650; first compound 2.53 µM
  relative viability: 0.611
PC-14; first compound 0.08 µM
  relative viability: 0.911
PC-14; first compound 0.253 µM
  relative viability: 0.811
PC-14; first compound 0.8 µM
  relative viability: 0.896
PC-14; first compound 2.53 µM
  relative viability: 0.807
RERF-LC-KJ; first compound 0.08 µM
  relative viability: 0.833
RERF-LC-KJ; first compound 0.253 µM
  relative viability: 0.712
RERF-LC-KJ; first compound 0.8 µM
  relative viability: 0.794
RERF-LC-KJ; first compound 2.53 µM
  relative viability: 0.846
SK-MES-1; first compound 0.08 µM
  relative viability: 0.97
SK-MES-1; first compound 0.253 µM
  relative viability: 0.937
SK-MES-1; first compound 0.8 µM
  relative viability: 1.05
SK-MES-1; first compound 2.53 µM
  relative viability: 0.941
